# Experimental data from patent US4151300A, “Acetohydroxamic acids” (Laboratoire L. Lafon, priority 1976, dated 1979).
# Entries after “also recorded” stand apart in the source; their conditions may differ. Read-outs that look alike come from different tables or passages of the source.
# Key:
# mice [1] = assay: toxicity (isolated mice, intraperitoneal); type: in vivo
# Experimental: (§1) The following text summarises a part of the results of the tests which were carried out with the products according to the invention, these products (unless otherwise stated) being administered intraperitoneally, in suspension in a gum solution (gum arabic), in a volume of 20 ml/kg in the case of mice and of 5 ml/kg in the case of rats.
# mice [2] = assay: traction (motor incoordination); type: in vivo, mice (EVIC CEBA strain)
# mice [3] = assay: motility reduced by habituation to a cage (residual motility); type: in vivo; settings: i.p.
# Experimental: as §1
# Mice which have remained for 18 hours in the actimeters are given CRL 40,373. They are immediately replaced in their cages and, after a period of half an hour, their motility is recorded for 30 minutes (6 animals per dose, 12 comparison animals).
# After remaining for 18 hours in the actimeters, the mice receive CRL 40,385. Immediately afterwards they are replaced in their cage and half an hour afterwards the recording of the motility starts and is continued for 30 minutes.
# mice [4] = assay: interaction with reserpine (hypothermia, ptosis); type: in vivo; settings: i.p.
# central nervous system = assay: psychopharmacological study / behaviour; type: in vivo, mice; settings: for reactivity: mice
# rats [5] = assay: interaction with apomorphine (stereotype behaviour in rats); type: in vivo
# Experimental: as §1
# Batches of six rats are each given a subcutaneous injection of apomorphine (0.5 mg/kg) 30 minutes after the administration of CRL 40,373.
# Batches of 6 rats are given a subcutaneous injection of 0.5 mg/kg of apomorphine 30 minutes after the administration of CRL 40,385.
# mice [6] = assay: four-plate test; type: in vivo, mice (EVIC CEBA strain)
# Experimental: as §1
# (§2) The test is carried out on batches of 10 sensitive mice (EVIC CEBA strain), 30 minutes after the administration of CRL 40,373.
# (§3) Batches of 10 mice are subjected to the test thirty minutes after having received CRL 40,385.
# mice [7] = assay: inter-group aggressiveness (number of fights); type: in vivo; settings: mice, i.p.; for aggressiveness: large/high dose
# Experimental: as §1
# After three weeks' residence in each of the halves of a cage divided by an opaque partition, the mice receive CRL 40,373 thirty minutes before being brought together by withdrawing the partition.
# After 18 days' residence on either side of a partition separating their cage in the middle, groups of 3 mice receive CRL 40,385 and are brought together half an hour later by withdrawing the partition, and the number of fights which take place in the course of 15 minutes is noted.
# mice [8] = assay: interaction with oxotremorine (temperature, trembling, peripheral cholinergic symptoms); type: in vivo; settings: mice, i.p.
# mice [9] = assay: motility reduced by hypoxia treatment (motor recovery); type: in vivo; settings: mice, i.p.
# mice [10] = assay: electrical shock (convulsing effects); type: in vivo, mice (EVIC CEBA strain); settings: mice, i.p.
# Experimental: as §1, §2, §3
# mice [11] = assay: spontaneous motility (actimeter); type: in vivo
# Experimental: as §1
# Thirty minutes after having been given CRL 40,373, the mice (6 per dose, 12 comparison animals) are placed in an actimeter, where their motility is recorded for half an hour.
# Thirty minutes after having been given CRL 40,385, the mice are placed in actimeters where their motility is recorded for half an hour.
# man = assay: clinical use in man; type: in vivo
# rats [12] = assay: interaction with amphetamine (stereotypies in rats); type: in vivo
# Experimental: as §1
# 30 minutes after the administration of CRL 40,373, amphetamine is injected intraperitoneally at a dose of 2 mg/kg.
# Thirty minutes after the administration of CRL 40,385 the rats are given an intraperitoneal injection of 2 mg/kg of amphetamine (6 animals per dose).
# rats [13] = assay: prolonged conditioning to take avoiding action (shuttle box); type: in vivo
# Description: Rats placed in a shuttle box are conditioned to avoid an electric shock by changing sides. The shock is preceded by a sound and light stimulus lasting 3 seconds, which ceases when sides are changed or after 8 seconds. The sequence is repeated every 20 seconds. Animals conditioned for several tens of minutes show a percentage of avoidance which is close to 100%. They continue to be subjected to the stimulus […] and gradually they reach a state in which they are no longer able to change sides during the period of 3 seconds during which no shock is delivered.
# As a first approximation, such an effect can be likened to a resumption of conditioned activity in a tired animal.
# Rats placed in a "shuttle box" are conditioned to avoid an electric shock lasting 5 seconds, by changing sides. The shock is preceded, for 3 seconds, by a sound and light stimulus which ceases when the rat changes side, or at the end of 8 seconds. The sequence repeats every 20 seconds. […] They continue to be subjected to the stimulus every 20 seconds and gradually they no longer succeed in avoiding the shock.
# CRL 40,438 is then administered and any resumption of the avoidance movements is followed until the effect ceases.
structure (smiles),measurement,setting,value
"CCCCC(CCCC)(CCCC)C(=O)NO [CRL 40,373, Tributylacetohydroxamic acid]",mortality,"mice [1]; isolated mice, i.p., 64, 128, 256, 512 and 1,024 mg/kg",No mortality whatsoever
same,motor incoordination / incapacity,mice [2]; i.p.,does not bring about any major motor incoordination
same,motility reduced by habituation to the cage,mice [3],does not cause a resumption of the exploring activity of mice accustomed to their environment
same,reserpine-induced hypothermia,mice [4],not modified
same,reserpine-induced ptosis,mice [4],not modified
same,psychopharmacological profile / conclusion,"central nervous system; mouse, in vivo",sedative agent
same,apomorphine-induced stereotypies,"rats [5]; rats, i.p.",not influenced
same,number of incorrect moves (four-plate test),"mice [6]; mice, i.p.",does not cause an increase in the number of incorrect moves
same,aggressiveness,mice [7],reduces the number of fights
same,oxotremorine-induced trembling,mice [8],no significant influence on the trembling caused by oxotremorine
same,temperature (oxotremorine-induced hypothermia),"mice [8]; 128 and 512 mg/kg, oxotremorine 0.5 mg/kg i.p.",exerts a hypothermia-inducing effect and aggravates the lowering of the temperature produced by oxotremorine
same,peripheral cholinergic symptoms of oxotremorine,mice [8]; high doses (128 and 512 mg/kg),increases the hypersalivation and hyperlacrymation produced by oxotremorine
same,motor recovery after hypoxia/anoxia by pressure reduction,mice [9],does not produce an improvement in the motor recovery of mice
same,convulsing effects of the electric shock,mice [10],does not modify the convulsing effects of the electric shock
same,spontaneous motility,"mice [11]; mice, i.p., 128 and 512 mg/kg",causes a reduction in the (spontaneous) motor activity of the mice
same,clinical result,"man; tablet 100 mg, 1 to 3 tablets per day",used clinically with success as a sedative
same,amphetamine-induced stereotypies,"rats [12]; rats, i.p.","inhibits the amphetamine-induced stereotypies, this inhibition being proportional to the doses"
"O=C(CC(=O)N1c2ccccc2CCc2ccccc21)NO [CRL 40,471, 5-(10,11-Dihydro-dibenz[b,f]azepino)-carbonylacetohydroxamic acid]",LD-O (maximum non-lethal dose),"mice [1]; mouse, in vivo, ip","greater than 1,024 mg/kg"
same,motility reduced by habituation to the cage,mice [3],does not cause a resumption of the motor activity in mice habituated to their cage
same,reserpine-induced hypothermia,mice [4],moderate antagonism against reserpine-induced hypothermia
same,psychopharmacological profile / conclusion,"central nervous system; mouse, in vivo",sedative activity
same,apomorphine-induced stereotypies,"rats [5]; rats, i.p.",does not alter the stereotypies induced by amphetamine and by apomorphine
same,inter-group aggressiveness,mice [7],an effect of the anti-aggressive type appears to manifest itself in the absence of any hypomotility
same,aggressiveness,mice [7],reduces the intra-specific aggressiveness in mice
same,motor recovery after hypoxia/anoxia by pressure reduction,mice [9],does not improve the motor recovery in mice
same,motor recovery after hypoxia/anoxia by pressure reduction,mice [9]; 512 mg/kg,motor recovery comparable to that of the comparison mice
same,spontaneous motility,"mice [11]; mice, i.p., 512 mg/kg",very greatly reduces the spontaneous motility of mice
same,clinical result,"man; tablet 0.250 mg, 2 tablets per day",good results clinically as a sedative
same,amphetamine-induced stereotypies,"rats [12]; rats, i.p.",does not alter the stereotypies induced by amphetamine
"CC(C(=O)NO)C(=O)N(c1ccccc1)c1ccccc1 (centres unmarked) [CRL 40,438, 2-(N,N-Diphenylcarbamoyl)-propionohydroxamic acid]",LD-O (maximum non-lethal dose),"mice [1]; mice, i.p.","greater than 1,024 mg/kg"
same,motility reduced by habituation to the cage,mice [3],very marked stimulant effect where the motility has been reduced by habituation to the cage
same,resumption of avoiding actions (prolonged avoidance test),rats [13],"an effect of the ""anti-fatigue"" type"
same,resumption of avoiding actions (prolonged avoidance test),"rats [13]; i.p., 64, 128 and 256 mg/kg",causes a resumption of the avoidance behaviour
same,reserpine-induced hypothermia,mice [4],moderately opposes hypothermia
same,reserpine-induced ptosis,mice [4],moderately opposes hypothermia and ptosis induced by reserpine
same,stereotype movements (product alone),central nervous system; high dose,"presence, at a high dose, of stereotype movements"
same,reactivity,central nervous system,hyper-reactivity in mice
same,psychopharmacological profile / conclusion,"central nervous system; mouse, in vivo",effects of the excitation-inducing type; also recorded: activity of the anti-depressant type or of the psychostimulant type
same,apomorphine-induced stereotypies,rats [5]; high dose,boosting of the stereotypies induced by apomorphine
same,aggressiveness,mice [7],reduces the aggressive behaviour of mice
same,oxotremorine-induced trembling,mice [8],"moderately opposes hypothermia and ptosis induced by reserpine, and the trembling movements caused by oxotremorine"
same,spontaneous motility,mice [11]; i.p.,moderate increase in the spontaneous motor activity
same,amphetamine-induced stereotypies,rats [12]; high dose,boosting of the stereotypies induced by apomorphine and by amphetamine
O=C(CCN1c2ccccc2Sc2ccccc21)N[O-].[Na+],LD-O (maximum non-lethal dose),"mice [1]; mice, i.p.",greater than 256 mg/kg
same,time to death,"mice [1]; mice, i.p., 512 mg/kg",24 h
same,time to death,"mice [1]; mice, i.p., 1,024 mg/kg",0.583 h
same,motor incapacity,"mice [2]; mice, i.p., high doses (32 and 128 mg/kg)",substantial motor incapacity
same,motility reduced by habituation to the cage,mice [3],not improved
same,reserpine-induced ptosis,mice [4]; 128 and 32 mg/kg,aggravates the ptosis induced by reserpine
same,reserpine-induced hypothermia,mice [4]; high dose,aggravates the hypothermia induced by reserpine
same,body temperature effect (product alone),"central nervous system; mouse, in vivo",hypothermia-inducing agent
same,oxotremorine-induced trembling,mice [8],does not alter the intensity or duration of the trembling movements induced by oxotremorine
same,temperature (oxotremorine-induced hypothermia),mice [8],contributes its effect to the hypothermia-inducing action of oxotremorine
same,motor recovery after hypoxia/anoxia by pressure reduction,mice [9],not improved
same,lethal effects of the electric shock,mice [10]; high doses (32 and 128 mg/kg),increase in the lethal effects of the electric shock
same,motor activity,"mice [11]; mice, i.p., from 8 mg/kg upwards",reduction of the motor activity
"COc1ccc(C[S+]([O-])CC(=O)NO)cc1 (centres unmarked) [CRL 40,498, p-Methoxybenzyl-sulphinyl-acetohydroxamic acid]",LD-O (maximum non-lethal dose),"mice [1]; mice, i.p.","greater than 1,204 mg/kg"
same,symptoms / behaviour,"mice [1]; mouse, in vivo, ip, 256 mg/kg","sedation, depressed respiration and reaction to the touch"
same,motor incapacity,mice [2]; high dose,without motor incapacity
same,reserpine-induced hypothermia,mice [4],partial antagonism to reserpine-induced hypothermia
same,reserpine-induced ptosis,mice [4],without alteration of the ptosis
same,body temperature effect (product alone),central nervous system; high dose,hypothermia
same,sedation / sedative effect,central nervous system; high dose(s),sedation
same,reactivity,central nervous system; high dose,"reduction in motility, in aggressiveness and in reactivity"
same,number of incorrect moves (four-plate test),"mice [6]; gastric administration, 512 to 32 mg/kg (and possibly less)",an increase in the number of incorrect moves
same,number of incorrect moves (four-plate test),"mice [6]; i.p., 512 to 2 mg/kg",an increase in the number of incorrect moves
same,aggressiveness,mice [7],"reduction in motility, in aggressiveness"
same,temperature (oxotremorine-induced hypothermia),mice [8],without alteration of the other hypothermia studied
same,motor recovery after hypoxia/anoxia by pressure reduction,mice [9],a discrete stimulant effect on the motility
same,spontaneous motility,"mice [11]; mice, high dose",reduction in motility
same,clinical result,"man; pill 100 mg, 2 pills per day",good results clinically as an anxiolytic agent
